Experimental data reported in patent US9670227B2, “Thienopyrimidine derivatives, a process for their preparation and pharmaceutical compositions containing them” (LES LABORATOIRES SERVIER, priority 2013, dated 2017).

What was measured:
Mcl-1 protein = Mcl-1 protein (UniProtKB primary accession number: Q07820) (Homo sapiens, UniProt Q07820); experiment: Inhibition of Mcl-1 by fluorescence polarisation, Method 1; format: binding; conditions: fluorescence polarisation test; Method 2 values are underlined in the patent (underlining not visible here); read-out: IC50 (M) Mcl-1 FP
Sequence of Mcl-1 protein (Q07820 whole entry): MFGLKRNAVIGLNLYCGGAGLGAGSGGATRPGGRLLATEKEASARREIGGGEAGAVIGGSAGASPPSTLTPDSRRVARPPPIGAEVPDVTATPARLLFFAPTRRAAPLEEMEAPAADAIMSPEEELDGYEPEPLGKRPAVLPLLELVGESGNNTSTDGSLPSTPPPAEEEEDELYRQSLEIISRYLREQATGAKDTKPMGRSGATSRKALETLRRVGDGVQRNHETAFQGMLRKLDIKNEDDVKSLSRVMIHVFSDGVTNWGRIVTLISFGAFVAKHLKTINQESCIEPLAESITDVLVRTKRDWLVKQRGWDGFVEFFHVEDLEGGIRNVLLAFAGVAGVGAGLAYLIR
Method in brief: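 Buffer of 10 mM HEPES pH 7.4 with 150 mM NaCl and 0.05% Tween 20 held 5 nM Mcl-1 and 1 nM fluorescein-tagged ligand (final). Compounds were tested as 11-point serial dilutions at 5% final DMSO, and binding was read by FP.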

[1] = system: H929 multiple myeloma tumour line; experiment: In vitro cytotoxicity, Microculture Tetrazolium Assay; format: cell-based; conditions: Homo sapiens, NCI-H929, 48 h, H929 cells, 48 hours exposure, MTT; read-out: IC50 (μM) MTT H929
Experimental: The cytotoxicity studies were carried out on the H929 multiple myeloma tumour line.
The cells are distributed onto microplates and exposed to the test compounds for 48 hours.

Row | IC50 (Mcl-1 protein) | Compound | IC50 [1]
1 | 6.5e-09 M | CCOCCn1nccc1COc1ccccc1CC(Oc1ncnc2sc(-c3ccc(F)cc3)c(-c3ccc(OCCN4CCN(C)CC4)c(Cl)c3C)c12)C(=O)O [Example 89, (2R)-2-{[(5Sa)-5-{3-chloro-2-methyl-4-[2-(4-methylpiperazin-1-yl)ethoxy]phenyl}-6-(4-fluorophenyl)thieno[2,3-d]pyrimidin-4-yl]oxy}-3-(2-{[1-(2-ethoxyethyl)-1H-pyrazol-5-yl]methoxy}phenyl)propanoic acid] | 0.027 µM
2 | 3.2e-09 M | COCCOCCn1nccc1COc1ccccc1CC(Oc1ncnc2sc(-c3ccc(F)cc3)c(-c3ccc(OCCN4CCN(C)CC4)c(Cl)c3C)c12)C(=O)O [Example 90, (2R)-2-{[(5Sa)-5-{3-chloro-2-methyl-4-[2-(4-methylpiperazin-1-yl)ethoxy]phenyl}-6-(4-fluorophenyl)thieno[2,3-d]pyrimidin-4-yl]oxy}-3-[2-({1-[2-(2-methoxyethoxy)ethyl]-1H-pyrazol-5-yl}methoxy)phenyl]propanoic acid] | 0.058 µM
3 | 1.4e-08 M | Cc1c(-c2c(-c3ccc(F)cc3)sc3ncnc(OC(Cc4ccccc4OCc4cncnc4)C(=O)O)c23)ccc(OCCN2CCN(C)CC2)c1Cl [Example 93, (2R)-2-{[(5Sa)-5-{3-chloro-2-methyl-4-[2-(4-methylpiperazin-1-yl)ethoxy]phenyl}-6-(4-fluorophenyl)thieno[2,3-d]pyrimidin-4-yl]oxy}-3-[2-(pyrimidin-5-ylmethoxy)phenyl]propanoic acid] | 0.087 µM
4 | 1.9e-09 M | Cc1c(-c2c(-c3ccc(F)cc3)sc3ncnc(OC(Cc4ccccc4OCc4cnnn4-c4ccccc4)C(=O)O)c23)ccc(OCCN2CCN(C)CC2)c1Cl [Example 94, (2R)-2-{[(5Sa)-5-{3-chloro-2-methyl-4-[2-(4-methylpiperazin-1-yl)ethoxy]phenyl}-6-(4-fluorophenyl)thieno[2,3-d]pyrimidin-4-yl]oxy}-3-{2-[(1-phenyl-1H-1,2,3-triazol-5-yl)methoxy]phenyl}propanoic acid] | 0.085 µM
5 | 3.8e-09 M | COCCCn1nncc1COc1ccccc1CC(Oc1ncnc2sc(-c3ccc(F)cc3)c(-c3ccc(OCCN4CCN(C)CC4)c(Cl)c3C)c12)C(=O)O [Example 96, (2R)-2-{[(5Sa)-5-{3-chloro-2-methyl-4-[2-(4-methylpiperazin-1-yl)ethoxy]phenyl}-6-(4-fluorophenyl)thieno[2,3-d]pyrimidin-4-yl]oxy}-3-(2-{[1-(3-methoxypropyl)-1H-1,2,3-triazol-5-yl]methoxy}phenyl)propanoic acid] | 0.034 µM
6 | 3.3e-09 M | COCCn1nncc1COc1ccccc1CC(Oc1ncnc2sc(-c3ccc(F)cc3)c(-c3ccc(OCCN4CCN(C)CC4)c(Cl)c3C)c12)C(=O)O [Example 97, (2R)-2-{[(5Sa)-5-{3-chloro-2-methyl-4-[2-(4-methylpiperazin-1-yl)ethoxy]phenyl}-6-(4-fluorophenyl)thieno[2,3-d]pyrimidin-4-yl]oxy}-3-(2-{[1-(2-methoxyethyl)-1H-1,2,3-triazol-5-yl]methoxy}phenyl)propanoic acid] | 0.075 µM
7 | 3.3e-07 M | Cc1c(-c2c(-c3ccc(F)cc3)sc3ncnc(OC(Cc4ccccc4OCc4cocn4)C(=O)O)c23)ccc(OCCN2CCN(C)CC2)c1Cl [Example 98, (2R)-2-{[(5Sa)-5-{3-chloro-2-methyl-4-[2-(4-methylpiperazin-1-yl)ethoxy]phenyl}-6-(4-fluorophenyl)thieno[2,3-d]pyrimidin-4-yl]oxy}-3-[2-(1,3-oxazol-4-ylmethoxy)phenyl]propanoic acid] | 0.118 µM
8 | 8e-09 M | Cc1c(-c2c(-c3ccc(F)cc3)sc3ncnc(OC(Cc4ccccc4OCc4ncncc4Br)C(=O)O)c23)ccc(OCCN2CCN(C)CC2)c1Cl [Example 101, (2R)-3-{2-[(5-bromopyrimidin-4-yl)methoxy]phenyl}-2-{[(5Sa)-5-{3-chloro-2-methyl-4-[2-(4-methylpiperazin-1-yl)ethoxy]phenyl}-6-(4-fluorophenyl)thieno[2,3-d]pyrimidin-4-yl]oxy}propanoic acid] | 0.398 µM
9 | 2.4e-08 M | Cc1c(-c2c(-c3ccc(F)cc3)sc3ncnc(OC(Cc4ccccc4OCCF)C(=O)O)c23)ccc(OCCN2CCN(C)CC2)c1Cl [Example 103, (2R)-2-{[(5Sa)-5-{3-chloro-2-methyl-4-[2-(4-methylpiperazin-1-yl)ethoxy]phenyl}-6-(4-fluorophenyl)thieno[2,3-d]pyrimidin-4-yl]oxy}-3-[2-(2-fluoroethoxy)phenyl]propanoic acid] | 0.214 µM
10 | 7.5e-09 M | COCCOc1ccccc1CC(Oc1ncnc2sc(-c3ccc(F)cc3)c(-c3ccc(OCCN4CCN(C)CC4)c(Cl)c3C)c12)C(=O)O [Example 104, (2R)-2-{[(5Sa)-5-{3-chloro-2-methyl-4-[2-(4-methylpiperazin-1-yl)ethoxy]phenyl}-6-(4-fluorophenyl)thieno[2,3-d]pyrimidin-4-yl]oxy}-3-[2-(2-methoxyethoxy)phenyl]propanoic acid] | 0.386 µM
11 | 1.2e-08 M | COCCOCCOc1ccccc1CC(Oc1ncnc2sc(-c3ccc(F)cc3)c(-c3ccc(OCCN4CCN(C)CC4)c(Cl)c3C)c12)C(=O)O [Example 105, (2R)-2-{[(5Sa)-5-{3-chloro-2-methyl-4-[2-(4-methylpiperazin-1-yl)ethoxy]phenyl}-6-(4-fluorophenyl)thieno[2,3-d]pyrimidin-4-yl]oxy}-3-{2-[2-(2-methoxyethoxy)ethoxy]phenyl}propanoic acid] | 0.251 µM
12 | 1.2e-08 M | COCCOCCOCCOc1ccccc1CC(Oc1ncnc2sc(-c3ccc(F)cc3)c(-c3ccc(OCCN4CCN(C)CC4)c(Cl)c3C)c12)C(=O)O [Example 106, (2R)-2-{[(5Sa)-5-{3-chloro-2-methyl-4-[2-(4-methylpiperazin-1-yl)ethoxy]phenyl}-6-(4-fluorophenyl)thieno[2,3-d]pyrimidin-4-yl]oxy}-3-(2-{2-[2-(2-methoxyethoxy)ethoxy]ethoxy}phenyl)propanoic acid] | 0.195 µM
13 | 5.3e-09 M | COc1ccc(-c2nccc(COc3ccccc3CC(Oc3ncnc4sc(-c5ccc(F)cc5)c(-c5ccc(OCCN6CCN(C)CC6)c(Cl)c5C)c34)C(=O)O)n2)cc1 [Example 107, (2R)-2-{[(5Sa)-5-{3-chloro-2-methyl-4-[2-(4-methylpiperazin-1-yl)ethoxy]phenyl}-6-(4-fluorophenyl)thieno[2,3-d]pyrimidin-4-yl]oxy}-3-(2-{[2-(4-methoxyphenyl)pyrimidin-4-yl]methoxy}phenyl)propanoic acid] | 0.007 µM
14 | 3.5e-09 M | Cc1ccc(-c2nccc(COc3ccccc3CC(Oc3ncnc4sc(-c5ccc(F)cc5)c(-c5ccc(OCCN6CCN(C)CC6)c(Cl)c5C)c34)C(=O)O)n2)cn1 [Example 108, (2R)-2-{[(5Sa)-5-{3-chloro-2-methyl-4-[2-(4-methylpiperazin-1-yl)ethoxy]phenyl}-6-(4-fluorophenyl)thieno[2,3-d]pyrimidin-4-yl]oxy}-3-(2-{[2-(6-methylpyridin-3-yl)pyrimidin-4-yl]methoxy}phenyl)propanoic acid] | 0.007 µM
